# Assay results taken from publication PMC7334220, “Diamond Blackfan anemia is mediated by hyperactive Nemo-like kinase” (Nature Communications, 2020).
# What was measured:
# [1] = system: NLK phosphorylation at Thr298; assay: SDS-PAGE / pThr298-NLK Western blot after NLK in vitro kinase reaction (rebuttal Experiment 6); assay type: biochemical, human; details: Day 7
# Method: Experiment 5. Activated p38 and NLK have different kinase specificity for NLK, c- […]
# Immunopurification of activated NLK and p38 were incubated in the presence of ATP, Mg2+ and immobilized, dephosphorylated substrates. After 30 mins, the degree of substrate phosphorylation was determined. Of the four substrates examined, NL K wa s the most phosphorylated substrate detected wit h p38. The extent of phosphorylation of the other substrates by p38 was normalized to NLK as substrate , i.e. NLK-100%, c-Myb -79%, Raptor-33%, ST AT 3 -18%. Raptor was the most phosphorylated substrate of NLK. Consequently, phosphorylation of other substrates by NLK is expressed as a percentage of NLK-mediated Raptor phosphorylation, i.e . NLK-37%, c-M yb -80%, […]
# Conclusion: W hile p38 and NLK can phosphorylate NLK, c-Myb and Raptor in vitro, we observe different specificities between immunoprecipitated NLK and p38. This would […]
# 1) W estern blotting analysis or RadioIsotope ivk assay showing increase of NLK autophosphorylation activity (Graph data is not suitable. SDS-PAGE gel data with molecular maker is suitable to show the activity of NLK itself)
# Response: We performed the W estern blot analysis as requested. Purified NLK incubated with immunopurified NLK from treated samples, were separated by SDS-PAGE and immunoblotted with pThr298- NLK antibody. […]
# [2] = system: RPS19-insufficient cord blood CD34+ HSPCs; assay: In vitro differentiation of cord blood CD34+ HSPCs transduced with shRNA against RPS19 (cell count and flow cytometry); assay type: cell-based, human; details: RPS19-insufficient erythroblasts treated at 100nM; rebuttal Experiment 12
# Method: Cells were plated at 2000 cell per well in 96-well plates in the presence or absence of doxycycline. Relative amounts of live cells were quantified by luciferase-based Cell titer-Glo® assay. b TGFβR1 inhibitors were assessed for their ability to increase cell expansion in RPS19-insuffiency. As a control, vehicle alone (no doxycycline) is represented at the far left while all other samples were treated with doxycycline to induce RPS19-insufficiency. c Kit^+ erythroid progenitors were grown in the absence of doxycycline and in the presence of 10 µM of indicated compound. In addition, cells were treated with 5 ng/ml of TGFβ1 for 5 days before being subjected to Cell titer-Glo® assay. d Differentiating cord blood CD34^+ progenitors were transduced with shRNA against luciferase or RPS19 and treated with inhibitors at working concentrations for TGFβ inhibition every three days. […] Cells were counted and CD235^+ erythroid (i and iii) and CD11b^+ myeloid cell (ii and iv) percentages were determined by flow cytometry. The number of erythroid or myeloid cells is expressed as a percentage of the number of that lineage with no cytokine or drug treatment. Bars represent means ± SD with individual data points overlaid. n = 3 independent experiments performed in triplicate. Statistics: two-tailed Student’s t test, significant *p < 0.05. Also see Supplementary Fig. 1. Erythroid expansion is depicted in red while myeloid is in purple. Source data are provided as a Source Data file.
# Cells were counted and assessed for cell surface expression of CD235. b Lin-Kit^+ hematopoietic progenitors were obtained from three mouse embryos expressing tetracycline-inducible shRNA against RPS19 at day E14.5 or three untreated mice, and thee mature RPL11^+/+ or three mature RPL11^+/lox mice treated with tamoxifen for eight weeks. […] Values were expressed as a percentage relative to untreated controls. c, d Intracellular phosphorylation of NLK at Thr298 was determined by capillary electrophoresis using the Peggy Sue™ Automated Western blotting platform. After lysis, 4 µg of protein from the CD235^+ population was probed against pThr298-NLK and normalized to GAPDH. […] After counting the total cell population, the ratio of CD235^+ erythroblasts was determined by flow cytometry and number of CD235^+ erythroblasts calculated. This was expressed as a percentage of the average number of erythroid cells present in untreated healthy controls. f NLK phosphorylation was assessed by capillary electrophoresis as above. Bars represent means ± SD with individual data points overlaid. […] Statistics: two-tailed Student’s t test, significant *p < 0.05. Also see Supplementary Fig. 8. Source data are provided as a Source Data file.
# Primary human CD34^+ hematopoietic stem and progenitor cells were purified from cord or peripheral blood (New York Blood Center) or from human fetal liver tissue (Advanced Bioscience Resources and University of California, Los Angeles Center for AIDS Research) by using magnetic-activated cell sorting (Miltenyi Biotec) and were cryopreserved. Upon thawing, cells were cultured in x-Vivo15 media (Lonza) containing 10% fetal bovine serum, fms-related tyrosine kinase 3 (50 ng/ml), […] (50 ng/ml), interleukin-3 (IL-3; 20 ng/ml), interleukin-6 (IL-6; 20 ng/ml), and stem cell factor (50 ng/ml). When applied, TGFβ1 was added at 5 ng/ml. Kp53A1 cells were obtained from Javier Leon and cultured in DMEM supplemented with 10% fetal bovine serum at 37 or 32 °C.
# p38 phosphorylation = p38 phosphorylation in treated cells (Western blot of pp38); assay type: cell-based, human; details: 100nM; rebuttal Experiment 12
# c-Myb = c-Myb expression and phosphorylation in Kp53A1 cells switched to 32 °C (Western blot); assay type: cell-based; details: pretreated 30 min, 37 to 32 °C for 0, 16, 48 h, Fig. 7d
# Method: (§1) Bars represent means ± SD with individual data points overlaid. n = 3 independent experiments performed in triplicate. […] Source data are provided as a Source Data file.
# Inhibitors were added to cells at indicated concentrations with a final DMSO concentration of 0.5%. […] IC50 calculations were obtained using 8–9 concentrations of compound and generated using the IC50 Calculator software by AAT Bioquest®. NLK, p38, or ALK5 for in vitro kinase assays were immunopurified from Kp53A1 cells. NLK activation was induced by incubating cells at 32° for 24-48 h, p38 by stimulating with IL-3, IL-6, SCF, and Epo at the same concentrations used for differentiating erythroid progenitors.
# NLK dimerization and p53 [3] = assay: YFP-/CFP-NLK FRET (NLK dimerization) and p53 flow cytometry in cord blood CD34+ HSPCs; assay type: cell-based, human; details: d
# Description: Ribosome-insufficiency induces stabilization of p53 protein and contributes to DBA pathogenesis[27],[57]–[59]. […] To further examine the role of p53 in NLK activation in our model and DBA patient samples, we utilized Nutlin-3. Nutlin-3 inhibits the E3 ubiquitin ligase MDM2 binding of p53 and subsequently stabilizes p53 from ubiquitin-dependent degradation. NLK dimerizes upon activation[46] and the detection of FRET from dimerized YFP- and CFP-NLK pairs correlates with NLK activity in RPS19-insufficiency (Fig. 3d). […] We gated p53 expression into p53^low in which 6.6% of cells activate NLK, and p53^hi where 91.9% of cells activate NLK (Fig. 6b.ii). RPS19-insufficiency increased the p53^hi population from 8.1 to 34.1%, corresponding to an increase from 9.0 to 36.1% of cells with elevated NLK-dimerization (Fig. 6b.iii).
# Fig. 6 NLK is activated in early erythroid progenitors and requires P53 stabilization in RPS19-insufficiency. a Cord blood CD34^+ progenitors were transduced with lentivirus expressing shRNA against luciferase (shLuc) or RPS19 (shRPS19) co-expressing GFP. Cells were also transduced with or without shRNA against p53 co-expressing mCherry. […] Cells were stained for p53 and both p53 and FRET was measured by flow cytometry. […] Bone marrow mononuclear cells from three DBA patients were pooled and analyzed simultaneously (iii). d Documentation of the percentage of cells with dimerizing NLK in p53^hi and p53^low is tabulated and can be compared with NLK in vitro kinase activity. e—green Samples were gated to include non-erythroid CD71^-CD235^- populations, MEP- and BFU-E-enriched CD71^lowCD235^- populations, CFU-E-enriched CD71^hiCD235^- populations and proerythroblast and intermediate erythroblast CD71^hiCD235^+ populations. […]
# NLK dimerization and p53 [4] = assay: YFP-/CFP-NLK FRET (NLK dimerization) and p53 flow cytometry in healthy bone marrow mononuclear cells; assay type: cell-based, human; details: Nutlin-3 24 h, control 6.6%, Fig. 6c, d
# Description: as §1
# [5] = 3 days with Nutlin-3, Fig. 6b.ii
smiles,measurement,setting,value
CNC(=O)c1ccc(C)c(-n2c(C)cc(OCc3ccc(F)cc3F)c(Br)c2=O)c1 [PH797804],phosphorylation of NLK at Thr298 by NLK immunopurified from treated RPS19-insufficient cells,[1],not suppressed
same,increase in erythropoiesis in RPS19-insufficiency,[2],no increase
same,inhibition of p38,p38 phosphorylation,inhibited
C[C@@H]1CN(Cc2ccc(F)cc2)[C@@H](C)CN1C(=O)c1cc2c(C(=O)C(=O)N(C)C)cn(C)c2cc1Cl [SCIO-469],increase in erythropoiesis in RPS19-insufficiency,[2],no increase
same,inhibition of p38,p38 phosphorylation,inhibited
CC(=O)N[C@@H](CSC(=O)[C@]1([C@@H](O)C(C)C)NC(=O)[C@H](C)[C@@H]1O)C(=O)O [lactacystin],expression and phosphorylation of c-Myb after NLK activation,c-Myb,sustained out to 48 h
COc1ccc(C2=N[C@@H](c3ccc(Cl)cc3)[C@@H](c3ccc(Cl)cc3)N2C(=O)N2CCNC(=O)C2)c(OC(C)C)c1 [Nutlin-3],% FREThi in P53hi,NLK dimerization and p53 [3]; [5],91.9%
same,% FREThi in P53low,NLK dimerization and p53 [3]; [5],6.6%
same,% FREThi (cells with NLK dimerization),"NLK dimerization and p53 [3]; shLuc, 3 days with Nutlin-3, control 9.0%, Fig. 6b",50.2%
same,% P53hi,NLK dimerization and p53 [4],31.7%
